In PubChem BioAssay (NCI):
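Values below derive from 48-hour exposures of cells grown in 96-well plates, with endpoints linearly interpolated between the two concentrations bracketing the appropriate inhibition level. GI50 is the concentration that inhibits growth by half. TGI: total growth inhibition.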

Key:
Test in all cases: NCI-60 cell line screen, 48 h
[1] = system: HOP-92 NSCLC
[2] = system: OVCAR-8 ovarian
[3] = system: XF 498 CNS
[4] = system: LXFL 529 NSCLC
[5] = system: LOX IMVI melanoma
[6] = system: SNB-78 CNS
[7] = system: HCC-2998 colon
[8] = system: SF-295 CNS
[9] = system: SNB-75 CNS
[10] = system: SNB-19 CNS
[11] = system: SR leukemia
[12] = system: SK-MEL-28 melanoma
[13] = system: KM20L2 colon
[14] = system: A549 NSCLC
[15] = system: DMS 273 small cell lung
[16] = system: SK-MEL-2 melanoma
[17] = system: IGROV1 ovarian
[18] = system: U251 CNS
[19] = system: OVCAR-5 ovarian
[20] = system: SF-539 CNS
[21] = system: M14 melanoma
[22] = system: NCI-H522 lung
[23] = system: SK-OV-3 ovarian
[24] = system: RXF 393 renal
[25] = system: SW-620 colon
[26] = system: SN12C renal
[27] = system: HOP-62 NSCLC
[28] = system: M19-MEL melanoma
[29] = system: MOLT-4 leukemia
[30] = system: HCT-116 colon
[31] = system: COLO 205 colon
[32] = system: RPMI-8226 leukemia
[33] = system: HT29 colon
[34] = system: UACC-257 melanoma
[35] = system: 786-0 renal
[36] = system: K-562 leukemia
[37] = system: HL-60(TB) leukemia
[38] = system: CCRF-CEM leukemia
[39] = system: NCI-H23 lung
[40] = system: UO-31 renal
[41] = system: OVCAR-4 ovarian
[42] = system: KM12 colon
[43] = system: SF-268 CNS
[44] = system: CAKI-1 renal
[45] = system: EKVX NSCLC
[46] = system: DLD-1 colon
[47] = system: DMS 114 small cell lung
[48] = system: HCT-15 colon
[49] = system: A498 renal
[50] = system: TK-10 renal
[51] = system: NCI-H226 lung
[52] = system: UACC-62 melanoma
[53] = system: SK-MEL-5 melanoma
[54] = system: MALME-3M melanoma
[55] = system: HOP-18 NSCLC
[56] = system: ACHN renal
[57] = system: NCI-H460 lung
[58] = system: OVCAR-3 ovarian

## C/C(=N\O)C(CN(C)C)C(c1ccccc1)c1c(O)c2ccccc2oc1=O (configuration not stated)
[1]
  TGI: > 100 µM
[2]
  TGI: > 100 µM
[3]
  TGI: > 100 µM
[4]
  TGI: > 100 µM
[5]
  TGI: > 100 µM
[6]
  TGI: > 100 µM
[7]
  TGI: > 100 µM
[8]
  TGI: > 100 µM
[9]
  TGI: > 100 µM
[10]
  TGI: > 100 µM
[11]
  TGI: > 100 µM
[12]
  TGI: > 100 µM
[13]
  TGI: > 100 µM
[14]
  TGI: > 100 µM
[15]
  TGI: > 100 µM
[16]
  TGI: > 100 µM
[17]
  TGI: > 100 µM
[18]
  TGI: > 100 µM
[19]
  TGI: > 100 µM
[20]
  TGI: > 100 µM
[21]
  TGI: > 100 µM
[22]
  TGI: > 100 µM
[23]
  TGI: > 100 µM
[24]
  TGI: > 100 µM
[25]
  TGI: > 100 µM
[26]
  TGI: > 100 µM
[27]
  TGI: > 100 µM
[28]
  TGI: > 100 µM
[29]
  TGI: > 100 µM
[30]
  TGI: > 100 µM
[31]
  TGI: > 100 µM
[32]
  TGI: > 100 µM
[33]
  TGI: > 100 µM
[34]
  TGI: > 100 µM
[35]
  TGI: > 100 µM
[36]
  TGI: > 100 µM
[37]
  TGI: > 100 µM
[38]
  TGI: > 100 µM
[39]
  TGI: > 100 µM
[40]
  TGI: > 100 µM
[41]
  TGI: > 100 µM
[42]
  TGI: > 100 µM
[43]
  TGI: > 100 µM
[44]
  TGI: > 100 µM
[45]
  TGI: > 100 µM
[46]
  TGI: > 100 µM
[47]
  TGI: > 100 µM
[48]
  TGI: > 100 µM
[49]
  TGI: > 100 µM
[50]
  TGI: > 100 µM
[51]
  TGI: > 100 µM
[52]
  TGI: > 100 µM
[53]
  TGI: > 100 µM
[54]
  TGI: > 100 µM

## O=C(O/N=C1/CCC/C1=C\c1ccccc1)c1ccc(Cl)cc1
[55]
  TGI: > 100 µM
[1]
  TGI: > 100 µM
[2]
  TGI: > 100 µM
[3]
  TGI: > 100 µM
[4]
  TGI: > 100 µM
[5]
  TGI: > 100 µM
[6]
  TGI: > 100 µM
[7]
  TGI: > 100 µM
[8]
  TGI: > 100 µM
[9]
  TGI: 78 µM
[10]
  TGI: > 100 µM
[11]
  TGI: > 100 µM
[12]
  TGI: > 100 µM
[13]
  TGI: > 100 µM
[14]
  TGI: > 100 µM
[15]
  TGI: > 100 µM
[16]
  TGI: > 100 µM
[17]
  TGI: > 65 µM
[18]
  TGI: > 89.8 µM
[19]
  TGI: > 100 µM
[20]
  TGI: > 62.2 µM
[21]
  TGI: > 100 µM
[56]
  TGI: > 100 µM
[22]
  TGI: > 100 µM
[23]
  TGI: > 100 µM
[24]
  TGI: > 31.6 µM
[25]
  TGI: > 100 µM
[26]
  TGI: > 100 µM
[27]
  TGI: > 89.6 µM
[28]
  TGI: > 100 µM
[29]
  TGI: > 100 µM
[30]
  TGI: > 100 µM
[31]
  TGI: > 100 µM
[32]
  TGI: > 100 µM
[33]
  TGI: > 100 µM
[34]
  TGI: > 100 µM
[35]
  TGI: > 100 µM
[36]
  TGI: > 100 µM
[37]
  TGI: > 100 µM
[38]
  TGI: > 100 µM
[39]
  TGI: > 95.3 µM
[40]
  TGI: > 100 µM
[41]
  TGI: 58.7 µM
[42]
  TGI: > 100 µM
[43]
  TGI: > 100 µM
[44]
  TGI: > 82.4 µM
[57]
  TGI: > 31.6 µM
[45]
  TGI: > 100 µM
[46]
  TGI: > 31.6 µM
[48]
  TGI: > 100 µM
[49]
  TGI: > 100 µM
[50]
  TGI: > 100 µM
[51]
  TGI: > 100 µM
[52]
  TGI: > 100 µM
[53]
  TGI: > 100 µM
[58]
  TGI: > 71.9 µM
[54]
  TGI: > 100 µM

## CC(C)(C)c1cc2c(OP(c3ccccc3)c3ccccc3)c(c1)Cc1cc(C(C)(C)C)cc(c1OP(c1ccccc1)c1ccccc1)Cc1cc(C(C)(C)C)cc(c1OP(c1ccccc1)c1ccccc1)Cc1cc(C(C)(C)C)cc(c1OP(c1ccccc1)c1ccccc1)C2
[55]
  TGI: > 5 µM
[1]
  GI50: > 50 µM
  TGI: > 50 µM
[2]
  GI50: > 50 µM
  TGI: > 50 µM
[4]
  GI50: > 50 µM
  TGI: > 50 µM
[5]
  GI50: 22.9 µM
  TGI: > 50 µM
[6]
  TGI: > 5 µM
[7]
  GI50: > 50 µM
  TGI: > 50 µM
[8]
  GI50: > 50 µM
  TGI: > 50 µM
[9]
  GI50: > 50 µM
  TGI: > 50 µM
[10]
  GI50: > 50 µM
  TGI: > 50 µM
[11]
  TGI: > 5 µM
[12]
  GI50: > 50 µM
  TGI: > 50 µM
[13]
  GI50: > 50 µM
  TGI: > 50 µM
[14]
  GI50: > 50 µM
  TGI: > 50 µM
[15]
  GI50: > 50 µM
  TGI: > 50 µM
[16]
  GI50: > 50 µM
  TGI: > 50 µM
[17]
  GI50: > 50 µM
  TGI: > 50 µM
[18]
  GI50: > 50 µM
  TGI: > 50 µM
[19]
  GI50: > 50 µM
  TGI: > 50 µM
[20]
  GI50: > 50 µM
  TGI: > 50 µM
[21]
  GI50: > 50 µM
  TGI: > 50 µM
[56]
  TGI: > 5 µM
[22]
  GI50: 44.6 µM
  TGI: > 50 µM
[23]
  GI50: > 50 µM
  TGI: > 50 µM
[24]
  TGI: > 50 µM
[25]
  GI50: > 50 µM
  TGI: > 50 µM
[26]
  GI50: > 50 µM
  TGI: > 50 µM
[27]
  GI50: > 50 µM
  TGI: > 50 µM
[28]
  GI50: > 50 µM
  TGI: > 50 µM
[29]
  TGI: > 5 µM
[30]
  TGI: > 5 µM
[31]
  GI50: > 50 µM
  TGI: > 50 µM
[32]
  GI50: 35.9 µM
  TGI: > 50 µM
[33]
  GI50: 47.8 µM
  TGI: > 50 µM
[34]
  GI50: > 50 µM
  TGI: > 50 µM
[35]
  GI50: > 50 µM
  TGI: > 50 µM
[36]
  GI50: > 50 µM
  TGI: > 50 µM
[37]
  GI50: > 50 µM
  TGI: > 50 µM
[38]
  GI50: 44.6 µM
  TGI: > 50 µM
[39]
  GI50: > 50 µM
  TGI: > 50 µM
[40]
  GI50: > 50 µM
  TGI: > 50 µM
[41]
  GI50: 22 µM
  TGI: > 50 µM
[42]
  GI50: > 50 µM
  TGI: > 50 µM
[43]
  GI50: > 50 µM
  TGI: > 50 µM
[44]
  TGI: > 5 µM
[57]
  GI50: > 50 µM
  TGI: > 50 µM
[45]
  GI50: > 50 µM
  TGI: > 50 µM
[46]
  GI50: > 50 µM
  TGI: > 50 µM
[47]
  GI50: > 50 µM
  TGI: > 50 µM
[48]
  GI50: > 50 µM
  TGI: > 50 µM
[49]
  GI50: > 50 µM
  TGI: > 50 µM
[50]
  GI50: > 50 µM
  TGI: > 50 µM
[51]
  GI50: > 50 µM
  TGI: > 50 µM
[52]
  GI50: > 50 µM
  TGI: > 50 µM
[53]
  GI50: > 50 µM
  TGI: > 50 µM
[58]
  GI50: > 50 µM
  TGI: > 50 µM
[54]
  GI50: > 50 µM
  TGI: > 50 µM
